Reference: ChEMBL document CHEMBL1926642, “Relevance of the C-5 position to schweinfurthin induced cytotoxicity” (2011)

What was measured:
Format in all cases: functional
COLO 205 = assay: Growth inhibition of human COLO205 cells after 48 hrs by sulforhodamine B assay; conditions: COLO 205, 48 h; for TGI: read-out: pTGI (converted)
HOP-62 = assay: Growth inhibition of human HOP62 cells after 48 hrs by sulforhodamine B assay; conditions: HOP-62, 48 h; for TGI: read-out: pTGI (converted)
Malme-3M = assay: Growth inhibition of human MALME-3M cells after 48 hrs by sulforhodamine B assay; conditions: for TGI: read-out: pTGI (converted)
NCI-H226 = assay: Growth inhibition of human NCI-H226 cells after 48 hrs by sulforhodamine B assay; conditions: NCI-H226, 48 h; for TGI: read-out: pTGI (converted)
NCI-H322M = assay: Growth inhibition of human NCI-H322M cells after 48 hrs by sulforhodamine B assay; conditions: for TGI: read-out: pTGI (converted)
M14 = assay: Growth inhibition of human M14 cells after 48 hrs by sulforhodamine B assay; conditions: M14, 48 h; for TGI: read-out: pTGI (converted)
MCF7 = assay: Growth inhibition of human MCF7 cells after 48 hrs by sulforhodamine B assay; conditions: MCF7, 48 h; for TGI: read-out: pTGI (converted)
NCI/ADR-RES = assay: Growth inhibition of human NCI/ADR-RES cells after 48 hrs by sulforhodamine B assay; conditions: for TGI: read-out: pTGI (converted)
T47D = assay: Growth inhibition of human T47D cells after 48 hrs by sulforhodamine B assay; conditions: for TGI: read-out: pTGI (converted)
MDA-MB-468 = assay: Growth inhibition of human MDA-MB-468 cells after 48 hrs by sulforhodamine B assay; conditions: MDA-MB-468, 48 h; for TGI: read-out: pTGI (converted)
UACC-257 = assay: Growth inhibition of human UACC257 cells after 48 hrs by sulforhodamine B assay; conditions: UACC-257, 48 h; for TGI: read-out: pTGI (converted)
HT-29 = assay: Growth inhibition of human HT-29 cells after 48 hrs by sulforhodamine B assay; conditions: HT-29, 48 h; for TGI: read-out: pTGI (converted)
SNB-75 = assay: Growth inhibition of human SNB75 cells after 48 hrs by sulforhodamine B assay; conditions: SNB-75, 48 h; for TGI: read-out: pTGI (converted)
SN12C = assay: Growth inhibition of human SN12C cells after 48 hrs by sulforhodamine B assay; conditions: for TGI: read-out: pTGI (converted)
TK-10 = assay: Growth inhibition of human TK10 cells after 48 hrs by sulforhodamine B assay; conditions: TK-10, 48 h; for TGI: read-out: pTGI (converted)
786-0 = assay: Growth inhibition of human 786-0 cells after 48 hrs by sulforhodamine B assay; conditions: 786-0, 48 h; for CC50: read-out: pLC50 (the source's name) (converted); for TGI: read-out: pTGI (converted)
NCI-H460 = assay: Growth inhibition of human NCI-H460 cells after 48 hrs by sulforhodamine B assay; conditions: NCI-H460, 48 h; for TGI: read-out: pTGI (converted)
PC-3 = assay: Growth inhibition of human PC3 cells after 48 hrs by sulforhodamine B assay; conditions: PC-3, 48 h; for CC50: read-out: pLC50 (the source's name) (converted); for TGI: read-out: pTGI (converted)
KM12 = assay: Growth inhibition of human KM12 cells after 48 hrs by sulforhodamine B assay; conditions: KM12, 48 h; for TGI: read-out: pTGI (converted)
UACC-62 = assay: Growth inhibition of human UACC62 cells after 48 hrs by sulforhodamine B assay; conditions: UACC-62, 48 h; for TGI: read-out: pTGI (converted)
MOLT-4 = assay: Growth inhibition of human MOLT4 cells after 48 hrs by sulforhodamine B assay; conditions: MOLT-4, 48 h; for TGI: read-out: pTGI (converted)
HCT-15 = assay: Growth inhibition of human HCT15 cells after 48 hrs by sulforhodamine B assay; conditions: HCT-15, 48 h; for TGI: read-out: pTGI (converted)
K562 = assay: Growth inhibition of human K562 cells after 48 hrs by sulforhodamine B assay; conditions: K562, 48 h
HOP-92 = assay: Growth inhibition of human HOP92 cells after 48 hrs by sulforhodamine B assay; conditions: HOP-92, 48 h; for TGI: read-out: pTGI (converted)
ACHN = assay: Growth inhibition of human ACHN cells after 48 hrs by sulforhodamine B assay; conditions: for TGI: read-out: pTGI (converted)
SF-295 = assay: Growth inhibition of human SF295 cells after 48 hrs by sulforhodamine B assay; conditions: SF-295, 48 h; for TGI: read-out: pTGI (converted)
UO-31 = assay: Growth inhibition of human UO31 cells after 48 hrs by sulforhodamine B assay; conditions: UO-31, 48 h; for TGI: read-out: pTGI (converted)

COc1cc(/C=C/c2ccc3c(c2)C[C@@H]2C(C)(C)[C@H](O)CC[C@@]2(C)O3)cc(O)c1C/C=C(\C)CCC=C(C)C
GI50 (COLO 205): 3.63 µM | LC50 (COLO 205): 49 µM | TGI (COLO 205): 11 µM | GI50 (HOP-62): 6.17 µM | LC50 (HOP-62): 52.5 µM | TGI (HOP-62): 20 µM | GI50 (Malme-3M): 17.8 µM | LC50 (Malme-3M): 91.2 µM | TGI (Malme-3M): 40.7 µM | GI50 (NCI-H226): 22.9 µM | LC50 (NCI-H226): > 100 µM | TGI (NCI-H226): 56.2 µM | GI50 (NCI-H322M): 26.3 µM | LC50 (NCI-H322M): > 100 µM | TGI (NCI-H322M): 87.1 µM | GI50 (M14): 13.8 µM | LC50 (M14): 56.2 µM | TGI (M14): 27.5 µM | GI50 (MCF7): 16.6 µM | LC50 (MCF7): 79.4 µM | TGI (MCF7): 36.3 µM | GI50 (NCI/ADR-RES): 21.4 µM | LC50 (NCI/ADR-RES): > 100 µM | TGI (NCI/ADR-RES): 51.3 µM | GI50 (T47D): 20.9 µM | LC50 (T47D): > 100 µM | TGI (T47D): 58.9 µM | GI50 (MDA-MB-468): 11 µM | LC50 (MDA-MB-468): 72.4 µM | TGI (MDA-MB-468): 28.2 µM | GI50 (UACC-257): 22.9 µM | LC50 (UACC-257): > 100 µM | TGI (UACC-257): 55 µM | GI50 (HT-29): 1.95 µM | LC50 (concentration killing 50% of cells) (HT-29): 23.4 µM | TGI (HT-29): 5.01 µM | GI50 (SNB-75): 5.37 µM | LC50 (SNB-75): > 100 µM | TGI (SNB-75): 42.7 µM | GI50 (SN12C): 18.2 µM | LC50 (SN12C): 70.8 µM | TGI (SN12C): 36.3 µM | GI50 (TK-10): 29.5 µM | LC50 (TK-10): > 100 µM | TGI (TK-10): 79.4 µM | GI50 (786-0): 2.95 µM | CC50 (786-0): 42.7 µM | TGI (786-0): 12 µM | GI50 (NCI-H460): 7.41 µM | LC50 (concentration killing 50% of cells) (NCI-H460): 55 µM | TGI (NCI-H460): 21.9 µM | GI50 (PC-3): 8.51 µM | CC50 (PC-3): > 100 µM | TGI (PC-3): 56.2 µM | GI50 (KM12): 2.63 µM | LC50 (KM12): 21.9 µM | TGI (KM12): 6.46 µM | GI50 (UACC-62): 12.9 µM | LC50 (50% lethal concentration) (UACC-62): 70.8 µM | TGI (UACC-62): 30.2 µM | GI50 (MOLT-4): 5.01 µM | LC50 (MOLT-4): > 100 µM | TGI (MOLT-4): 38.9 µM | GI50 (HCT-15): 6.31 µM | LC50 (HCT-15): 58.9 µM | TGI (HCT-15): 20.9 µM | GI50 (K562): 5.5 µM | LC50 (K562): > 100 µM | TGI (K562; read-out: pTGI (converted)): 33.9 µM | GI50 (HOP-92): 17.8 µM | LC50 (HOP-92): > 100 µM | TGI (HOP-92): 49 µM | GI50 (ACHN): 20 µM | LC50 (ACHN): > 100 µM | TGI (ACHN): 46.8 µM | LC50 (SF-295): 38.9 µM | GI50 (SF-295; read-out: GI50): 1.66 µM | GI50 (SF-295; read-out: pGI50 (converted)): 1.66 µM | TGI (SF-295): 5.89 µM | GI50 (UO-31): 5.01 µM | LC50 (UO-31): 64.6 µM | TGI (UO-31): 20 µM

COc1cc(/C=C/c2cc(F)c3c(c2)C[C@@H]2C(C)(C)[C@H](O)CC[C@@]2(C)O3)cc(O)c1C/C=C(\C)CCC=C(C)C
GI50 (COLO 205): 12 µM | LC50 (COLO 205): 55 µM | TGI (COLO 205): 25.7 µM | GI50 (HOP-62): 7.41 µM | LC50 (HOP-62): 44.7 µM | TGI (HOP-62): 20 µM | GI50 (Malme-3M): 14.8 µM | LC50 (Malme-3M): 89.1 µM | TGI (Malme-3M): 36.3 µM | GI50 (NCI-H226): 18.6 µM | LC50 (NCI-H226): > 100 µM | TGI (NCI-H226): 45.7 µM | GI50 (NCI-H322M): 34.7 µM | LC50 (NCI-H322M): > 100 µM | TGI (NCI-H322M): > 100 µM | GI50 (M14): 12.9 µM | LC50 (M14): 57.5 µM | TGI (M14): 26.9 µM | GI50 (MCF7): 13.8 µM | LC50 (MCF7): 64.6 µM | TGI (MCF7): 30.2 µM | GI50 (NCI/ADR-RES): 3.89 µM | LC50 (NCI/ADR-RES): 50.1 µM | TGI (NCI/ADR-RES): 14.1 µM | GI50 (T47D): 12.3 µM | LC50 (T47D): 77.6 µM | TGI (T47D): 30.9 µM | GI50 (MDA-MB-468): 6.61 µM | LC50 (MDA-MB-468): 45.7 µM | TGI (MDA-MB-468): 20 µM | GI50 (UACC-257): 16.2 µM | LC50 (UACC-257): 93.3 µM | TGI (UACC-257): 38.9 µM | GI50 (HT-29): 2.57 µM | LC50 (concentration killing 50% of cells) (HT-29): 41.7 µM | TGI (HT-29): 11 µM | GI50 (SNB-75): 2.95 µM | LC50 (SNB-75): 37.2 µM | TGI (SNB-75): 13.8 µM | GI50 (SN12C): 14.5 µM | LC50 (SN12C): > 100 µM | TGI (SN12C): 39.8 µM | GI50 (TK-10): 15.8 µM | LC50 (TK-10): 67.6 µM | TGI (TK-10): 32.4 µM | GI50 (786-0): 3.31 µM | CC50 (786-0): 38.9 µM | TGI (786-0): 10.2 µM | GI50 (NCI-H460): 1.86 µM | LC50 (concentration killing 50% of cells) (NCI-H460): 6.76 µM | TGI (NCI-H460): 3.55 µM | GI50 (PC-3): 5.13 µM | CC50 (PC-3): > 100 µM | TGI (PC-3): 25.1 µM | GI50 (KM12): 1.91 µM | LC50 (KM12): 8.32 µM | TGI (KM12): 3.98 µM | GI50 (UACC-62): 14.1 µM | LC50 (50% lethal concentration) (UACC-62): 63.1 µM | TGI (UACC-62): 29.5 µM | GI50 (MOLT-4): 2.04 µM | LC50 (MOLT-4): > 100 µM | TGI (MOLT-4): 6.46 µM | GI50 (HCT-15): 12.3 µM | LC50 (HCT-15): 66.1 µM | TGI (HCT-15): 28.8 µM | GI50 (K562): 2.4 µM | LC50 (K562): > 100 µM | GI50 (HOP-92): 3.39 µM | LC50 (HOP-92): 57.5 µM | TGI (HOP-92): 12.6 µM | GI50 (ACHN): 11.7 µM | LC50 (ACHN): 58.9 µM | TGI (ACHN): 26.3 µM | LC50 (SF-295): 69.2 µM | GI50 (SF-295; read-out: GI50): 5.01 µM | GI50 (SF-295; read-out: pGI50 (converted)): 5.01 µM | TGI (SF-295): 21.4 µM | GI50 (UO-31): 2.51 µM | LC50 (UO-31): 27.5 µM | TGI (UO-31): 6.46 µM
